This series is described as follows: activity coefficient (dimensionless); of the first substance listed, at infinite dilution; xn = mol fraction of the nth substance listed. The following applies: 101.33 kPa, Liquid, Chromatography, x1 = 0.

Numbers after ± are expanded uncertainties.

Regarding `CCCCC` [pentane] + CCCCC(CC)CN(CC(CC)CCCC)C(=O)C(C)C, the activity coefficient (323.15 K) is 0.795 ± 0.082; the activity coefficient (333.15 K) is 0.676 ± 0.071; the activity coefficient (343.15 K) turned out to be 0.544 ± 0.059; the activity coefficient (353.15 K) was found to be 0.457 ± 0.051; the activity coefficient (363.15 K) was 0.382 ± 0.045; the activity coefficient (373.15 K) amounted to 0.324 ± 0.041.
Turning to `Cc1cccc(C)c1` [1,3-dimethylbenzene] + CCCCC(CC)CN(CC(CC)CCCC)C(=O)C(C)C, the activity coefficient by setting is: (323.15 K) 11.8 ± 1.2; (333.15 K) 9.28 ± 0.98; (343.15 K) 7.2 ± 0.76; (353.15 K) 5.33 ± 0.56; (363.15 K) 4.13 ± 0.43; (373.15 K) 3.14 ± 0.33.

(Values after the NIST ThermoML archive (doi:10.1021/acs.jced.8b00635).)
